This is an account of results in patent US20200101042A1, “4-METHYLUMBELLIFERONE TREATMENT FOR IMMUNE MODULATION” (Benaroya Research Institute at Virginia Mason, priority 2013, published 2020).

Molecules are shown by their SMILES.

Series [1] concerns MOG35-55 peptide-induced EAE in C57B1/6 mice. The series can be described thus: MOG35-55 peptide-induced EAE mouse model of MS, EAE incidence and score. In kind it is in vivo. The following applies: for incidence of EAE: control 9/10. An excerpt: FIGS. 12A, 12B, and 12C graphically illustrate the mean EAE score as a function of days post induction in subjects treated with 4-MU according to a pretreatment, treatment, or intervention protocol, respectively.
For FIGS. 12A, 12B, and 12C, *P<0.05, ** P<0.01, ***P<0.001, Mann-Whitney.

Another series relates to FoxP3+ T-cells. Put plainly: FoxP3+ T-cell numbers in lymphatic tissue after 4-MU treatment. In kind it is in vivo, mouse.
Another series deals with DORmO mice. The series can be described thus: Blood glucose in DORmO double transgenic mouse model of autoimmune diabetes, 4-MU in chow. It is filed as in vivo. An excerpt: To determine that HA accumulates in the pancreatic islets and creates a permissive environment for autoimmune attacks during autoimmune diabetes disease progression, the DORmO double transgenic mouse model of autoimmune diabetes was used. DORmO mice predictably develop autoimmune diabetes because they are bred to have both a target antigen on their insulin producing beta-cells as well as an immune system that specifically recognizes that antigen. DORmO mice are the result of a cross between RIPmOVA mice (a strain that carries a gene specific for hen egg ovalbumin (OVA) that is only expressed on beta-cells, emulating the auto-antigen) and DO11.10 mice (a strain that carries a T-cell receptor transgene specific for OVA, emulating auto-reactive CD4+ T cells). […] A group of control mice was treated with 4-MU as well in order to see if 4-MU alters the blood glucose levels of those mice. […] The DORmO mice on control chow had to be sacrificed after getting diabetic according to the animal protocol. Another treatment group was established where the 4-MU treatment started at 12 weeks of age when the DORmO mice were already diabetic. […] The animals stained for HA were also stained for insulin. […] The pictures in the upper row show representative images of insulin staining in pancreatic islets in control animals treated with normal chow, (left column) or treated with 4-MU (right column).

The subject of series [2] is cells infiltrating into the spinal cord. The series can be described thus: Immunologic profile of cells infiltrating the spinal cord at peak of EAE. In kind it is in vivo, mouse. The following applies: for CD4+ T-cell infiltration into the spinal cord: EAE day 22 after immunization. The protocol: The effect of 4-MU treatment on EAE pathogenesis was analyzed by evaluating the immunologic profile of cells infiltrating into the spinal cord at the peak of disease (day 22 after immunization).
Further, considering the differential pathologic roles that Th1 and Th17 cells have in EAE (Axtell, R. C., et al., Clin. Rev. Allergy Immunol. 44, 114-120 (2013); Lowther, D. E., et al., Acta Neuropathol. 126, 501-515 (2013)), this change in the local Th cell profile can contribute to the prevention of the autoimmune attack on myelin.

For a further series, the system named is CD4+ CD25+ cells. Put plainly: CD25+ of CD4+ T-cells in spleen and lymph nodes of EAE mice. In kind it is in vivo, mouse. The following applies: EAE subjects, 4-MU started before immunization (pretreatment protocol).
In series [3] the test system is HA accumulation in the pancreatic islets. Put plainly: Immuno-staining for HA in pancreatic islets after 4-MU treatment. In kind it is in vivo, mouse. The following applies: DORmO mice, 8 week start treatment group, versus DORmO mice on control chow. An excerpt: HA accumulation in the pancreatic islets was investigated through immuno-staining after 4-MU treatment in a few mice of the 8 week start treatment group. […] The pictures in the upper row show representative images of a HA staining in pancreatic islets in control animals treated with normal chow, left column, or treated with 4-MU, right column.

In series [4] the test system is insulin in pancreatic islets. The series can be described thus: Immuno-staining for insulin in pancreatic islets after 4-MU treatment. It is filed as in vivo, mouse. Particulars: DORmO mice treated with 4-MU, 8 week start treatment group. The source says: The animals stained for HA were also stained for insulin. […] The pictures in the upper row show representative images of insulin staining in pancreatic islets in control animals treated with normal chow, (left column) or treated with 4-MU (right column).

The conditions of series [5]: cited from earlier work.
The mark [6] stands for this setting: EAE mice after 4-MU treatment, FIG. 13B.
Where [7] appears, read: EAE mice, 4-MU treatment, FIG. 13A.

Consider `Cc1cc(=O)oc2cc(O)ccc12` [4-MU, 4-methylumbelliferone], for which, in series [1] (intervention protocol, 4-MU after the onset of neurological symptoms), the “EAE disease severity (mean EAE score)” value is given as “significantly ameliorated disease as early as 3 days after start of treatment”. For the same compound, the “incidence of EAE” value in series [1] (pretreatment protocol, 4-MU 5% w/w in chow from 4 days before immunization) was 1/7; in series [1] (treatment protocol, 4-MU 5% w/w in chow after immunization boost on day 2, before symptoms) it was 2/10. Also, in the series with FoxP3+ T-cells (D0.11 mice following OVA immunization, FIG. 13D), the “FoxP3+ T-cells in spleen, MLN, ILN and PLN” value is given as “increase in FoxP3+ T-cells”. The general immunosuppression result in the series on FoxP3+ T-cells (D0.11 mice on 4-MU, data not shown) is on record as “did not induce a general immunosuppression”. Besides, in the series with FoxP3+ T-cells (healthy mice, data not shown), the “numbers of FoxP3+ T-cells in lymphatic tissue” value is listed as “significantly increased”. Further, in the series on DORmO mice (DORmO mice, 4-MU added to chow), the normo-glycemia result is on record as “restored normo-glycemia”. Moreover, in the series with DORmO mice (DORmO mice, 4-MU in chow starting at 5 weeks of age), the “blood glucose level / development of diabetes” value is “not to become diabetic”. The blood glucose level result with DORmO mice (DORmO mice, 4-MU treatment starting at 8 weeks of age, at 23 weeks of age) is “normal blood glucose level”. In the series on DORmO mice (already diabetic DORmO mice, 4-MU starting at 12 weeks of age, after 1 week of treatment), the blood glucose levels result is “decrease of the blood glucose levels”. The “CD4+ T-cell infiltration into the spinal cord” value in series [2] (intervention treatment) was “moderately reduced”; in series [2] (pretreatment and early treatment with 4-MU), “substantially reduced”. Further, in series [2] (setting [6]), the “IFN-γ producing Th1 populations among CD4+ T-cells in the CNS” value is on record as “mainly reduced”. Besides, the “IL-17 producing Th17 population among CD4+ T-cells in the CNS” value in series [2] (setting [6]) is “less affected”. Besides, the “total lymphocyte counts in lymphatic organs (generalized immunosuppression)” value in series [2] (EAE mice on 4-MU) is given as “unchanged”. For the same compound, the “infiltration of CD8+ and CD4+ lymphocytes and macrophages” value in series [2] (setting [7]) is “reduced infiltration”. For the same compound, the “total numbers of cell infiltrates in spinal cord” value in series [2] (setting [7]) is reported as “lower total numbers of cell infiltrates”. Also, in the series with CD4+ CD25+ cells, the “number of CD4+ CD25+ cells in the spleen and lymph nodes” value is on record as “increased number”. Besides, in series [3], the “HA accumulation in pancreatic islets (immuno-staining)” value is “significant decrease”. Also, the “insulin in the islets (immuno-staining)” value in series [4] is given as “still had a significant amount of insulin in the islets”. Also, the toxicity result in series [5] (general statement) is “no known toxicity”. Moreover, the “safety profile in clinical use” value in series [5] (human use in Europe and Asia (biliary spasm, gallstones)) is “excellent safety profile”.
